Measured values from patent USRE46943E1, “Radioprotector compounds and methods” (PETER MACCALLUM CANCER INSTITUTE, priority 2010, dated 2018).

Tests used:
[1] = test system: transformed human keratinocyte cell line (FEP 1811); assay: Clonogenic survival cell culture assay for radioprotective activity (12 Gy 137Cs gamma irradiation); type: cell-based; conditions: 12 Gy; for DMF10 (dose modification factor at a concentration of 10 microM of radioprotector): 10 microM radioprotector; for DMFm (dose modification factor at maximum protection): DMF=Dp/Dc at survival level Sm; for PF (protection factor = Sm/So): survival at maximum protection vs irradiation only
Summary of the method: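 Survival after irradiation gave protection factor PF = Sm/So (maximum-protection survival over irradiation-only survival). DMF = Dp/Dc is the ratio of doses giving survival Sm with and without radioprotector. DMF10 uses survival at 10 microM radioprotector in place of Sm.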

[2] = test system: oral mucosa of mouse tongue; assay: Topical radioprotection of the oral mucosa of mouse tongue (mucosal ulceration endpoint); type: in vivo, mice of the inbred C3H/Neu strain
Procedure: Mice of the inbred C3H/Neu strain were sourced from a breeding colony at the Medical Faculty Carl Gustav Cams, Dresden, Germany. The animals were bred and housed under specified pathogen-free conditions. Housing was under controlled conditions of humidity (30-50%) and temperature (21° C.-24° C.). An automated light programme regulated a 12/12-hour light/dark rhythm with lights on from 6 am to 6 pm. The mice were kept in size 3 Macrolon cages, maximum of 10 per cage, on sawdust bedding. Standard mouse diet (Altromin 1326, Altrogge) and filtered city tap water from standard perspex drinking bottles were provided ad libitum.
A 3 mm×3 mm field at the middle of the lower surface of the mouse tongue was irradiated with 25 kV x-rays from a Darpac 150-MC device (Forward Raytech Ltd, Swinburne, UK) operated with a tube current of 20 milliamps yielding a dose rate of 3.78 Gy per minute and a focus-skin distance of 15 cm. Anaesthetised mice (sodium pentabarbitone; 60 mg per kg) were placed in a supine position in the central cylindrical hole (diameter 25 mm) of a pre-warmed aluminium block (approximately 35° C.). The tongue was guided through a hole (diameter 3 mm) in roof of the block by use of forceps, and the upper surface of the tongue was fixed to the outer surface of the block with double-sided adhesive tape. The head was supported by a polystyrene wedge to avoid traction of the base of the tongue and consequent hypoxia. The collimator was a 1 mm thick aluminium plate with a 3×3 mm^2 window positioned centrally over the lower surface of the tongue. Groups of 10 mice, were irradiated with 5 different doses in the range of 10-20 Gy.
One hour prior to irradiation, 10 microlitres of formulation was applied to the lower surface of the tongue of anaesthetised mice using a displacement micropipette. Thirty minutes later, a second 10 microlitre aliquot of the formulation was applied and the mice irradiated thirty minutes later.
Stock solutions of the appropriate drug in propylene glycol or water were diluted with an aqueous solution of Poloxamer 407 gel (BASF Lutrol F 127) and/or a solution of hydroxypropyl cellulose (approx average MW 80,000; Aldrich cat no 435007) in propylene glycol and with water and/or propylene glycol, producing each of two formulations: • Formulation 1—gel, which contained 10 or 30 mM drug in 20% Poloxamer 407 and 1% hydroxylpropyl cellulose in 30% propylene glycol in water, and • Formulation 2—Liquid, which contained 10, 30 or 60 mM drug in propylene glycol […] of 2% hydroxypropyl cellulose. Scoring and Data Analysis
At various times after irradiation, the lower surface of the tongue of anaesthetised mice was examined daily. The quantal endpoint used was mucosal ulceration, corresponding to confluent mucositis RTOG/EORTC grade 3. The data plotted in the example figures is the percentage of a group of 10 mice in which the endpoint of mucosal ulceration was scored for at least 2 consecutive days. Radiation dose effect curves were generated with a single parameter sigmoidal relationship (logistic function
[formula] using the Prism 5.0 curve-fitting programme to generate the ED50 value, which corresponds to the interpolated radiation dose at which 50% of the mice in the group reached the mucosal ulceration endpoint.

[3] = 10 mM drug in Formulation 1, topical to tongue
[4] = 10 mM drug in Formulation 1 vs vehicle
[5] = 30 mM drug in Formulation 2, topical to tongue
[6] = 30 mM drug in Formulation 2 vs vehicle

## OC1CCN(c2ccc3nc(-c4ccc5nc(-c6cc7ccccc7cn6)[nH]c5c4)[nH]c3c2)CC1 [Example 23, 3-(5′-(5″-(4′″-Hydroxypiperidin-1′″-yl)benzimidazol-2″-yl)benzimidazol-2′-yl)isoquinoline]
other
  melting point: 222 °C (dec.)
[1]
  DMF10 (dose modification factor at a concentration of 10 microM of radioprotector): 2.13
  DMFm (dose modification factor at maximum protection): 2.26
  PF (protection factor = Sm/So): 36.5
[2]; 60 mM drug in Formulation 3, topical to tongue
  ED50 (radiation dose at which 50% of the mice reached mucosal ulceration): 14.6 Gy
[2]; 60 mM drug in Formulation 3 vs blank formulation
  dose reduction factor: 1.13

## CN1CCN(c2ccc3nc(-c4ccc5nc(-c6ccccn6)[nH]c5c4)[nH]c3c2)CC1 [Example 2, 2-(5′-(5″-(4′″-Methylpiperazin-1′″-yl)benzimidazol-2″-yl)benzimidazol-2′-yl)pyridine]
[1]
  DMF10 (dose modification factor at a concentration of 10 microM of radioprotector): 1.93
  DMFm (dose modification factor at maximum protection): 2.10
  PF (protection factor = Sm/So): 18.2
[2]; [3]
  ED50 (radiation dose at which 50% of the mice reached mucosal ulceration): 14.4 Gy
[2]; [4]
  dose reduction factor: 1.20

## c1ccc(-c2nc3ccc(-c4nc5ccc(N6CCOCC6)cc5[nH]4)cc3[nH]2)nc1 [Example 19, 2-(5′-(5″-Morpholinobenzimidazol-2″-yl)benzimidazol-2′-yl)pyridine]
[1]
  DMF10 (dose modification factor at a concentration of 10 microM of radioprotector): 1.66
  DMFm (dose modification factor at maximum protection): 2.26
  PF (protection factor = Sm/So): 69.6
[2]; [3]
  ED50 (radiation dose at which 50% of the mice reached mucosal ulceration): 14.3 Gy
[2]; [4]
  dose reduction factor: 1.19
[2]; [5]
  ED50 (radiation dose at which 50% of the mice reached mucosal ulceration): 15.2 Gy
[2]; [6]
  dose reduction factor: 1.18

## Cc1ccc(-c2nc3ccc(-c4nc5ccc(N6CCN(C)CC6)cc5[nH]4)cc3[nH]2)nc1 [Example 6, 5-Methyl-2-(5′-(5″-(4′″-methylpiperazin-1′″-yl)benzimidazol-2″-yl)benzimidazol-2′-yl)pyridine]
other
  melting point: 200 to 204 °C
[1]
  DMF10 (dose modification factor at a concentration of 10 microM of radioprotector): 2.43
  DMFm (dose modification factor at maximum protection): 2.52
  PF (protection factor = Sm/So): 26.2
[2]; [5]
  ED50 (radiation dose at which 50% of the mice reached mucosal ulceration): 14.6 Gy
[2]; [6]
  dose reduction factor: 1.13
